From ChEMBL document CHEMBL5608199, “Quaternized antimicrobial peptide mimics based on harmane as potent anti-MRSA agents by multi-target mechanism covering cell wall, cell membrane and intracellular targets” (Eur J Med Chem, 2024) come the findings set out here.

As a reminder, the MIC is the lowest concentration that inhibits growth of the organism. Low values mean inhibition by little substance, high ones a need for much substance.

Molecules are shown by their SMILES. Converted amounts (≈) assume the structure as drawn. The source made the active and inactive calls. The calls are words filed in the database; no cut-off is given here.

For assay [1], the system named is Staphylococcus aureus. The assay can be described thus: Antibacterial activity against Staphylococcus aureus CMCC 26003 incubated for 18 hrs by two fold serial broth dilution method. It counts as functional. (In broth dilution the organism is exposed to a series of concentrations in liquid medium.)
Assay [2] deals with Staphylococcus aureus. The assay can be described thus: Antibacterial activity against methicillin-resistant Staphylococcus aureus CGMCC 1.12409 incubated for 18 hrs by two fold serial broth dilution method. It counts as functional.
Assay [3] concerns Staphylococcus aureus. Kind of assay: Antibacterial activity against methicillin-resistant Staphylococcus aureus ATCC 43300 incubated for 18 hrs by two fold serial broth dilution method. It counts as functional.
A further assay concerns Escherichia coli. The assay can be described thus: Antibacterial activity against Escherichia coli ATCC 8739 incubated for 18 hrs by two fold serial broth dilution method. It counts as functional.
The test system of assay [4] is Staphylococcus aureus. Kind of assay: Antibacterial activity against methicillin-resistant Staphylococcus aureus ATCC 33591 incubated for 18 hrs by two fold serial broth dilution method. It counts as functional.
The test system of assay [5] is Staphylococcus aureus. Kind of assay: Antibacterial activity against Staphylococcus aureus ATCC 29213 incubated for 18 hrs by two fold serial broth dilution method. It counts as functional.
Assay [6] concerns Staphylococcus aureus. The assay can be described thus: Antibacterial activity against methicillin-resistant Staphylococcus aureus ATCC 33591 infected in cyclophosphamide treated female KM mouse skin infection model assessed as reduction in number of bacterial clones in skin at 3.3 mg/kg administered for 4 days and measured on day 5. It counts as functional, organism-based. The settings on record: time 5.0 day.

The test system of assay [7] is Staphylococcus aureus. The assay can be described thus: Antibacterial activity against methicillin-resistant Staphylococcus aureus ATCC 33591 infected in cyclophosphamide treated female KM mouse skin infection model assessed as reduction in inflammatory cell infiltration at 3.3 mg/kg administered for 4 days and measured on day 5 by H and E staining based analysis. It counts as functional, organism-based. The settings on record: time 5.0 day.

The subject of assay [8] is Staphylococcus aureus. The assay can be described thus: Drug resistance, ratio of MIC for methicillin-resistant Staphylococcus aureus ATCC 33591 after 10 passages to MIC for methicillin-resistant Staphylococcus aureus ATCC 33591 during first exposure. It counts as functional.
The subject of assay [9] is Staphylococcus aureus. Kind of assay: Drug resistance, ratio of MIC for methicillin-resistant Staphylococcus aureus ATCC 33591 after 12 passages to MIC for methicillin-resistant Staphylococcus aureus ATCC 33591 during first exposure. It counts as functional.
In assay [10] the test system is Staphylococcus aureus. Kind of assay: Drug resistance, ratio of MIC for methicillin-resistant Staphylococcus aureus ATCC 33591 after 9 passages to MIC for methicillin-resistant Staphylococcus aureus ATCC 33591 during first exposure. It counts as functional.

`Cc1nccc2c3ccccc3n(CCCCCCCCn3c4ccccc4c4ccnc(C)c43)c12`: the MIC against Staphylococcus aureus [1], in the assay on Staphylococcus aureus [2], in the assay on Staphylococcus aureus [3], with Escherichia coli, in the assay with Staphylococcus aureus [4] and with Staphylococcus aureus [5] was greater than 128 µg/mL each time.
For the compound `CN[C@H](CC(C)C)C(=O)N[C@H]1C(=O)N[C@@H](CC(N)=O)C(=O)N[C@H]2C(=O)N[C@H]3C(=O)N[C@H](C(=O)N[C@H](C(=O)O)c4cc(O)cc(O)c4-c4cc3ccc4O)[C@H](O)c3ccc(c(Cl)c3)Oc3cc2cc(c3O[C@@H]2O[C@H](CO)[C@@H](O)[C@H](O)[C@H]2O[C@H]2C[C@](C)(N)[C@H](O)[C@H](C)O2)Oc2ccc(cc2Cl)[C@H]1O` [VANCOMYCIN], the outcome in the assay on Staphylococcus aureus [6] and with Staphylococcus aureus [7] was Active. The MIC against Staphylococcus aureus [1] was 0.25 µg/mL (≈ 0.173 µM); against Escherichia coli it was greater than 128 µg/mL.
On to `CCC[n+]1ccc2c3ccccc3n(CC[N+](C)(C)CCC)c2c1C.[Br-].[Br-]`, for which the minimal inhibitory concentration (MIC) against Staphylococcus aureus [1], in the assay with Staphylococcus aureus [2], in the assay on Staphylococcus aureus [3], in the assay on Escherichia coli, in the assay with Staphylococcus aureus [4] and in the assay on Staphylococcus aureus [5] was greater than 128 µg/mL each time.
In the case of `[2H]C([2H])([2H])[n+]1ccc2c([nH]c3ccccc32)c1C.[I-]`, the MIC in the assay on Staphylococcus aureus [1], in the assay on Staphylococcus aureus [2], with Staphylococcus aureus [3], with Escherichia coli, in the assay with Staphylococcus aureus [4] and against Staphylococcus aureus [5] was greater than 128 µg/mL throughout.
On to `Cc1nccc2c3ccccc3n(CCN(C)C)c12`, for which the minimal inhibitory concentration (MIC) in the assay with Staphylococcus aureus [1] is greater than 128 µg/mL; in the assay with Staphylococcus aureus [2] it was greater than 128 µg/mL; against Staphylococcus aureus [3], greater than 128 µg/mL; against Escherichia coli, 64 µg/mL (≈ 253 µM); in the assay with Staphylococcus aureus [4], greater than 128 µg/mL; in the assay with Staphylococcus aureus [5] it was greater than 128 µg/mL.
In the case of `Cc1c2[nH]c3ccccc3c2cc[n+]1C.[I-]`, the minimal inhibitory concentration (MIC) against Staphylococcus aureus [1], with Staphylococcus aureus [2], in the assay on Staphylococcus aureus [3], in the assay with Escherichia coli, in the assay with Staphylococcus aureus [4] and in the assay on Staphylococcus aureus [5] was greater than 128 µg/mL each time.
For `[2H]C([2H])([2H])[n+]1ccc2c3ccccc3n(CC[N+](CC)(CC)C([2H])([2H])[2H])c2c1C.[I-].[I-]`, the MIC in the assay with Staphylococcus aureus [1], in the assay with Staphylococcus aureus [2], in the assay with Staphylococcus aureus [3], against Escherichia coli, against Staphylococcus aureus [4] and with Staphylococcus aureus [5] was greater than 128 µg/mL in each case.
As for `Cc1c2c(cc[n+]1C)c1ccccc1n2CCCCCCCn1c2ccccc2c2cc[n+](C)c(C)c21.[I-].[I-]`, the MIC in the assay on Staphylococcus aureus [1] came to 0.5 µg/mL; with Staphylococcus aureus [2], 1 µg/mL; in the assay with Staphylococcus aureus [3], 2 µg/mL; in the assay with Escherichia coli it was 16 µg/mL; against Staphylococcus aureus [4], 0.5 µg/mL; in the assay with Staphylococcus aureus [5] it was 8 µg/mL.
For `Cc1nccc2c3ccccc3n(CCCCCCCn3c4ccccc4c4ccnc(C)c43)c12`, the minimum inhibitory concentration (MIC) against Staphylococcus aureus [1], in the assay with Staphylococcus aureus [2], against Staphylococcus aureus [3], against Escherichia coli, against Staphylococcus aureus [4] and against Staphylococcus aureus [5] was greater than 128 µg/mL in each case.
As for `CCCC[n+]1ccc2c3ccccc3n(CC[N+](C)(C)CCCC)c2c1C.[Br-].[Br-]`, the minimal inhibitory concentration (MIC) in the assay on Staphylococcus aureus [1] was 128 µg/mL; with Staphylococcus aureus [2] it was greater than 128 µg/mL; with Staphylococcus aureus [3], greater than 128 µg/mL; against Escherichia coli it was greater than 128 µg/mL; with Staphylococcus aureus [4] it was 128 µg/mL; in the assay on Staphylococcus aureus [5], greater than 128 µg/mL.
Take `[2H]C([2H])([2H])[n+]1ccc2c3ccccc3n(CC[N+](C)(C)C([2H])([2H])[2H])c2c1C.[I-].[I-]`: the minimum inhibitory concentration (MIC) in the assay with Staphylococcus aureus [1], against Staphylococcus aureus [2], in the assay on Staphylococcus aureus [3], with Escherichia coli, against Staphylococcus aureus [4] and against Staphylococcus aureus [5] was greater than 128 µg/mL throughout.
For the compound `CC[N+](C)(CC)CCn1c2ccccc2c2cc[n+](C)c(C)c21.[I-].[I-]`, the MIC in the assay on Staphylococcus aureus [1], in the assay on Staphylococcus aureus [2], against Staphylococcus aureus [3], with Escherichia coli, against Staphylococcus aureus [4] and against Staphylococcus aureus [5] was greater than 128 µg/mL throughout.
Turning to `CC[n+]1ccc2c3ccccc3n(CC[N+](CC)(CC)CC)c2c1C.[Br-].[Br-]`, the MIC with Staphylococcus aureus [1], against Staphylococcus aureus [2], in the assay on Staphylococcus aureus [3], in the assay with Escherichia coli, in the assay with Staphylococcus aureus [4] and against Staphylococcus aureus [5] was greater than 128 µg/mL throughout.
Take `CCCCC[n+]1ccc2c3ccccc3n(CCN(CC)CC)c2c1C.[Br-]`: the MIC with Staphylococcus aureus [1] came to 16 µg/mL; against Staphylococcus aureus [2] it was 64 µg/mL; in the assay on Staphylococcus aureus [3] it was 32 µg/mL; against Escherichia coli, 128 µg/mL; against Staphylococcus aureus [4], 32 µg/mL; in the assay with Staphylococcus aureus [5] it was 64 µg/mL.
Take `CCn1cc(C(=O)O)c(=O)c2cc(F)c(N3CCNCC3)cc21` [NORFLOXACIN]: the figures for the Ratio with Staphylococcus aureus [8], in the assay with Staphylococcus aureus [9] and in the assay on Staphylococcus aureus [10] were greater than 16, 2 and 16, respectively.
For the compound `Cc1c2c(cc[n+]1C)c1ccccc1n2CC[N+](C)(C)C.[I-].[I-]`, the MIC against Staphylococcus aureus [1], against Staphylococcus aureus [2], against Staphylococcus aureus [3], in the assay on Escherichia coli, in the assay on Staphylococcus aureus [4] and in the assay with Staphylococcus aureus [5] was greater than 128 µg/mL throughout.
Consider `Cc1nccc2c3ccccc3n(CCCCCn3c4ccccc4c4ccnc(C)c43)c12`, for which the MIC with Staphylococcus aureus [1], with Staphylococcus aureus [2], against Staphylococcus aureus [3], in the assay on Escherichia coli, in the assay on Staphylococcus aureus [4] and against Staphylococcus aureus [5] was greater than 128 µg/mL in each case.
Consider `CCC[n+]1ccc2c3ccccc3n(CCN(CC)CC)c2c1C.[Br-]`, for which the MIC was 64 µg/mL against Staphylococcus aureus [1]; greater than 128 µg/mL in the assay on Staphylococcus aureus [2]; greater than 128 µg/mL in the assay with Staphylococcus aureus [3]; greater than 128 µg/mL in the assay with Escherichia coli; 128 µg/mL in the assay on Staphylococcus aureus [4]; greater than 128 µg/mL against Staphylococcus aureus [5].
As for `CCCC[n+]1ccc2c3ccccc3n(CCN(CC)CC)c2c1C.[Br-]`, the MIC is 64 µg/mL in the assay with Staphylococcus aureus [1]; 64 µg/mL against Staphylococcus aureus [2]; 128 µg/mL with Staphylococcus aureus [3]; greater than 128 µg/mL with Escherichia coli; 64 µg/mL against Staphylococcus aureus [4]; greater than 128 µg/mL in the assay on Staphylococcus aureus [5].
Take `CC[n+]1ccc2c3ccccc3n(CC[N+](C)(C)CC)c2c1C.[Br-].[Br-]`: the MIC against Staphylococcus aureus [1], against Staphylococcus aureus [2], in the assay on Staphylococcus aureus [3], against Escherichia coli, against Staphylococcus aureus [4] and against Staphylococcus aureus [5] was greater than 128 µg/mL in each case.
As to `Cc1nccc2c3ccccc3n(CCCCn3c4ccccc4c4ccnc(C)c43)c12`, the MIC in the assay on Staphylococcus aureus [1], in the assay with Staphylococcus aureus [2], in the assay with Staphylococcus aureus [3], with Escherichia coli, with Staphylococcus aureus [4] and in the assay on Staphylococcus aureus [5] was greater than 128 µg/mL each time.
Regarding `Cc1nccc2c3ccccc3n(CCCCCCn3c4ccccc4c4ccnc(C)c43)c12`, the MIC in the assay on Staphylococcus aureus [1], with Staphylococcus aureus [2], against Staphylococcus aureus [3], in the assay with Escherichia coli, against Staphylococcus aureus [4] and with Staphylococcus aureus [5] was greater than 128 µg/mL in each case.
In the case of `CCCC[n+]1ccc2c3ccccc3n(CCN(C)C)c2c1C.[Br-]`, the MIC was 128 µg/mL in the assay with Staphylococcus aureus [1]; greater than 128 µg/mL in the assay with Staphylococcus aureus [2]; greater than 128 µg/mL in the assay on Staphylococcus aureus [3]; greater than 128 µg/mL with Escherichia coli; 128 µg/mL against Staphylococcus aureus [4]; greater than 128 µg/mL in the assay with Staphylococcus aureus [5].
Consider `CCN(CC)CCn1c2ccccc2c2ccnc(C)c21`, for which the minimum inhibitory concentration (MIC) was 128 µg/mL (≈ 455 µM) with Staphylococcus aureus [1]; greater than 128 µg/mL in the assay on Staphylococcus aureus [2]; 128 µg/mL (≈ 455 µM) in the assay with Staphylococcus aureus [3]; 128 µg/mL (≈ 455 µM) against Escherichia coli; 128 µg/mL (≈ 455 µM) with Staphylococcus aureus [4]; 128 µg/mL (≈ 455 µM) against Staphylococcus aureus [5].
In the case of `CCCCC[n+]1ccc2c3ccccc3n(CC[N+](C)(C)CCCCC)c2c1C.[Br-].[Br-]`, the minimal inhibitory concentration (MIC) against Staphylococcus aureus [1], in the assay on Staphylococcus aureus [2], against Staphylococcus aureus [3], against Escherichia coli, in the assay with Staphylococcus aureus [4] and against Staphylococcus aureus [5] was greater than 128 µg/mL each time.
